We go through 99 compounds from PubChem BioAssay AID493102 (Broad Institute, 2011).

The assay concerns SK-MEL-5 TRPM1-promoter luciferase reporter, 24 h. Kind of assay: reducers of TRPM1 reporter luminescence, concentration series – cell-based, SK-MEL-5, cherry-picked, set 4, MITF inhibitor project, dose response (AID 493102).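 Note: actives lower the luciferase signal so the potency reflects inhibition of reporter expression.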

As usually defined, the AC50 is the concentration giving half of the maximal activity seen. Regarding `CC(C)c1ccc(/C=N/Nc2ccc(C(=O)O)cc2)cc1`, the AC50 was 3.53 µM.
As for `CCOc1ccccc1NC(=O)C(=O)N/N=C/c1cc(Br)ccc1O`, the figure is 3.34 µM.
As for `O=C1c2ccccc2S(=O)(=O)N1Cc1nc2ccccc2s1`, the figure is 2.7 µM.
Consider `CC(=NNc1nc2ccccc2o1)c1cc2ccccc2cn1`, for which the AC50 was 0.175 µM.
Regarding `CCn1c(=O)c([N+](=O)[O-])c(Cl)c2ccccc21`, the AC50 was 7.2 µM.
The figure for `CC(C)(C)NC(=O)CCN(/N=C/c1ccc([N+](=O)[O-])o1)C1=NS(=O)(=O)c2ccccc21` is 7.18 µM.
As for `Nc1ccc(Oc2cccc(Oc3ccc(N)cc3)c2)cc1`, the figure is 1.1 µM; as for `C=CCn1c(C)cc(C2=NNC(=NC(C)(C)C)SC2)c1C`, 4.09 µM; as for `CN(C)c1ccc(NC(=S)c2ccccn2)cc1`, 2.84 µM.
The figure for `O=[N+]([O-])c1ccc(/C=N/N=C/c2ccc([N+](=O)[O-])o2)o1` is 9.36 µM; for `Cc1ccc(Oc2c(C(N)=O)cc([N+](=O)[O-])cc2[N+](=O)[O-])cc1` it is 3.68 µM.
Take `CCCN(CCC)C1=CC(=[N+]2CCCC2)CC(C)(C)C1`: the AC50 was 2.02 µM.
The figure for `O=C(Cn1ncc(Cl)c(Cl)c1=O)c1ccc(Cl)cc1` is 8.81 µM; for `COc1ccccc1N1C(=O)N(C(C)=O)C2C1Nc1ccccc1N2C` (centres undefined) it is 10.5 µM.
As for `O=C1NC(=O)N(Cc2ccccc2)C(=O)/C1=C/C=C/c1ccco1`, the figure is 4.85 µM.
As for `Cc1ccc(C)c(NC(=O)/C(C#N)=C/c2cn(CC(=O)NCc3ccco3)c3ccccc23)c1`, the figure is 6.56 µM.
In the case of `CC(=O)Nc1sc(C)c(C)c1C(=O)OCC(=O)N(CC(C)C)c1c(N)n(Cc2ccccc2)c(=O)[nH]c1=O`, the concentration at half-maximal activity (AC50) was 5.29 µM.
As for `O=[N+]([O-])c1ccc(-n2nnnc2-c2ccccc2)c([N+](=O)[O-])c1`, the figure is 7.37 µM.
As for `Cc1ccc(-n2cc(CNCCCn3ccnc3C)c(-c3ccc(F)cc3)n2)cc1`, the figure is 7.58 µM; as for `Cc1ccc(C(=O)c2cccc(N)c2)cc1C`, 3.62 µM.
As for `CC(NC(=O)c1ccc([N+](=O)[O-])o1)C12CC3CC(CC(C3)C1)C2` (centres undefined), the figure is 15.1 µM.
On to `Cn1cccc1C(=O)NC(=O)COC(=O)c1ccc(S(C)(=O)=O)c([N+](=O)[O-])c1`, for which the AC50 was 9.23 µM.
The figure for `COCCN(CC(=O)NC1CCCCC1)C(=O)/C=C/C(=O)c1ccc(OC)cc1O` is 5.48 µM; for `C=CCNC1=C(Cl)C(=O)c2ccccc2C1=O` it is 4.06 µM; for `CC(C)=CCc1c(O)ccc2c1OC(c1ccc(O)c(O)c1)CC2=O` (centres undefined) it is 11.7 µM.
For `O=C(c1ccc([N+](=O)[O-])s1)N1CCCc2ccccc21`, the AC50 is 11.2 µM.
For `O=C(/C=C\c1ccccc1)NCC(=O)N/N=C/c1ccc(O)cc1O`, the AC50 is 7.99 µM.
As for `Cc1c(C#N)c(NC(=O)CCl)n(Cc2ccc(F)cc2)c1C`, the figure is 7.16 µM.
`CC(=O)c1ccc(Sc2nnnn2-c2ccccc2)c([N+](=O)[O-])c1`: the AC50 was 7.82 µM.
The figure for `Cc1c(C#N)c(NC(=O)CCl)n(Cc2cccs2)c1C` is 7.06 µM; for `O=C1C(Cl)=C(N2CCN(c3ccccc3[N+](=O)[O-])CC2)C(=O)c2ccccc21` it is 3.59 µM.
As for `CCCCNC(=O)Nc1ccc(C2SCCS2)cc1`, the figure is 35.3 µM.
As to `CCc1ccccc1NC(=O)CN(C)C(=O)Cn1ncc(Cl)c(Cl)c1=O`, the AC50 was 11 µM.
The figure for `Cn1nnnc1Sc1ncnc2scc(-c3ccc(F)cc3)c12` is 8.1 µM; for `O=C(Nc1cc(-c2nc3ncccc3o2)ccc1Cl)c1ccc([N+](=O)[O-])o1` it is 5.76 µM.
Turning to `COc1cccc2sc(N3CCN(C(=O)c4ccc([N+](=O)[O-])o4)CC3)nc12`, the AC50 is 7.03 µM.
The figure for `CCOc1ccc(-c2cc(C)[n+](CCO)c(-c3ccc(OCC)cc3)c2)cc1` is 11.1 µM; for `O=C(N/N=C/c1cc(Br)ccc1O)c1ccncc1` it is 9.36 µM.
As for `COc1cc2c(cc1OC)C(C)N(S(=O)(=O)c1cnc(Cl)c(Cl)c1)CC2` (centres undefined), the figure is 12.1 µM.
As for `O=C(O)c1cccc(NC(=S)N/N=C/c2ccccn2)c1`, the figure is 8.63 µM; as for `CCC[n+]1c(C)sc2c3c(ccc21)CCCC3`, 9.87 µM; as for `N=c1n(Cc2ccc(Cl)cc2)c2ccccc2n1CC(O)COc1ccccc1` (centres undefined), 9.25 µM.
In the case of `O=C(NC1=C(Nc2ccc(Cl)cc2)C(=O)c2ccccc2C1=O)c1ccccc1`, the AC50 was 0.93 µM.
As for `Cc1ccc(C(=O)c2no[n+]([O-])c2C(=O)c2ccc(C)cc2)cc1`, the figure is 16.7 µM; as for `CCCCN1CCc2c1nc1ccc(Br)cc1c2N`, 12.2 µM; as for `[2H]C(CCOS(N)(=O)=O)c1ccc(C(C)(C)C)cc1` (centres undefined), 0.487 µM.
As for `Cc1ccc2nc3cc([N+](=O)[O-])cc([N+](=O)[O-])c3cc2c1`, the AC50 is 8.46 µM.
On to `O=C(O)c1cccc(N/N=C/c2cccs2)c1`, for which the AC50 was 1.51 µM.
As for `CC(=O)Nc1ccc(NC(=O)c2nc(S(=O)(=O)Cc3ccccc3)ncc2Cl)cc1`, the figure is 12.8 µM; as for `N#C/C(=C\c1ccc(OCc2ccc(C(=O)O)cc2)cc1)C(=O)N1CCOCC1`, 1.19 µM; as for `Oc1c(Cl)cc(Cl)cc1/C=N/Nc1ncc(Br)cn1`, 7.84 µM.
As for `O=C(Nc1ccc(Cl)c(S(=O)(=O)N2CCOCC2)c1)c1ccc(OCC2CCCO2)cc1` (centres undefined), the figure is 3.26 µM; as for `CC1CCC(C(C)C)C(OC(=O)Cn2c(-c3ccc(F)cc3)[n+](C)c3ccccc32)C1` (centres undefined), 5.57 µM.
The figure for `COC(=O)c1ccc(-n2c(C)cc(C(=O)CCl)c2C)cc1` is 7.46 µM.
Regarding `BrC(=C\c1ccccc1)/C=N/n1cnnc1`, the AC50 is 7.26 µM.
The figure for `O=C(N/N=C/c1cccc2cccnc12)c1ccccc1O` is 24.8 µM.
The figure for `Cc1cc(C(=O)CCl)c(C)n1CCc1ccc(F)cc1` is 4.25 µM; for `CC(C)N=C(NS(=O)(=O)c1ccccc1)C(Cl)(Cl)Cl` it is 6.76 µM; for `O=C(O)c1ccccc1C(=O)Nc1ccc(Oc2cccc3ccccc23)cc1` it is 18.8 µM.
As for `O=C(CNC(=O)c1ccccc1)N/N=C/c1ccc([N+](=O)[O-])s1`, the figure is 5.34 µM; as for `COc1ccc(C(=O)/C(C#N)=N/Nc2ccc([N+](=O)[O-])cc2)cc1`, 8.26 µM; as for `Cc1ccc2sc(N(CCCN(C)C)C(=O)c3ccc(S(=O)(=O)N(C)C4CCCCC4)cc3)nc2c1C`, 18 µM.
Consider `Cc1ccc(S(=O)(=O)CC(CN2CCCCC2)N2CCCCC2)cc1` (centres undefined), for which the AC50 was 8.1 µM.
As for `C=CC[n+]1c(-c2ccc(C)cc2)csc1Nc1ccc(NC(C)=O)cc1`, the figure is 1.57 µM.
As for `CC(C)c1ccc(/C=C2\SC(=S)N(CCC(=O)N3CCCCC3CCO)C2=O)cc1` (centres undefined), the figure is 7.43 µM; as for `COc1ccc(C(C(=O)NC2CCCCC2)N(C(=O)CCl)c2ccc(OC)cc2)cc1` (centres undefined), 9.27 µM.
For `Cc1c(N=C2C=CC(=O)c3ccccc32)c(=O)n(-c2ccccc2)n1C`, the half-maximal activity concentration (AC50) is 5.26 µM.
The figure for `COc1ccc(NS(=O)(=O)c2cc(NC(=O)CNC(=O)c3cccc(OC)c3)ccc2C)cc1` is 11 µM; for `Cc1cc(C)cc(N2C(=O)NC(=O)/C(=C\C=C\c3ccco3)C2=O)c1` it is 4.88 µM.
The figure for `CC1CCN(c2nc3ccc(C(=O)O)cc3s2)CC1` is 1.25 µM; for `CCOc1c(Br)cc(CNC2CCCCCCC2)cc1OC` it is 20.5 µM.
As for `CC(=O)Oc1c(C(=O)c2nnc(C)o2)c(=O)n(Cc2ccccc2)c2ccccc12`, the figure is 6.98 µM.
`Cc1ccc(C)c(-n2c3nc(=O)[nH]c(=O)c-3cc3cc([N+](=O)[O-])ccc32)c1`: the half-maximal activity concentration (AC50) was 8.42 µM.
As for `Cc1cccc(N2C(=O)NC(=O)/C(=C\c3cccn3-c3ccc(Cl)cc3)C2=O)c1`, the figure is 8.91 µM.
The figure for `O=C(CCl)Nc1ccc(-c2ccccc2)cc1` is 7.3 µM; for `C=C1C(=O)C=C[C@]2(C)C[C@@H]3OC(=O)[C@](C)(O)[C@H]3C[C@@H]12` it is 10.3 µM.
Regarding `O=C(N/N=C\c1cc(Br)ccc1O)c1ccc(S(=O)(=O)N2CCCCC2)cc1`, the AC50 was 1.78 µM.
As for `O=C(CCl)N1c2ccccc2CCc2ccccc21`, the figure is 5.54 µM; as for `O=C(Nc1ccc(N2CCN(C(=O)c3ccc(Cl)cc3)CC2)cc1)c1ccc([N+](=O)[O-])o1`, 7.32 µM.
For `CCOc1ccc(/C=C2\SC(=S)N(CCC(=O)O)C2=O)cc1`, the AC50 was 0.577 µM.
Regarding `CC(Oc1ccccc1)C(=O)Nc1nc(-c2ccccn2)cs1` (centres undefined), the AC50 is 14.1 µM.
The figure for `C=CCOc1ccc(/C=C2\SC(=S)N(CCC(=O)O)C2=O)cc1` is 0.337 µM.
The figure for `CCCOCc1ccc(O)c2ncccc12` is 15.5 µM; for `Cc1cc(NCCCn2ccnc2)n2ncc(-c3ccccc3)c2n1` it is 11 µM; for `COc1ccc(N(Cc2cc(=O)[nH]c3ccccc23)C(=O)CCl)cc1` it is 10.9 µM.
As for `Cc1ccc(C(=O)C[n+]2cc(-c3ccc(C)cc3)n3c2CCCCC3)cc1`, the figure is 3.63 µM; as for `O=C(N/N=C/c1ccc([N+](=O)[O-])s1)C(O)c1ccccc1` (centres undefined), 4.48 µM.
In the case of `O=[N+]([O-])/C=C\c1ccc(N2CCCC2)c(F)c1`, the AC50 was 13.4 µM.
The figure for `COc1ccc(COC(=O)c2cc([N+](=O)[O-])ccc2N2CCOCC2)cc1F` is 0.023 µM.
The figure for `COc1cc(C(=O)N/N=C(\c2ccccc2)c2ccccn2)cc(OC)c1OC` is 13.8 µM; for `COc1ccc(NC(C)C(=O)N/N=C/c2ccc([N+](=O)[O-])s2)cc1` (centres undefined) it is 15.8 µM; for `Cc1ccc(-c2cc3onc(-c4ccccc4)c3c(=O)n2C)cc1` it is 9.77 µM.
As for `CN(C)C1CCN(Cc2cc(COCc3ccccc3)c3cccnc3c2O)C1` (centres undefined), the figure is 9.99 µM.
For the compound `CCN(CC)CCC(=O)N1C/C(=C/c2ccccc2)C(=O)/C(=C\c2ccccc2)C1`, the AC50 was 4.72 µM.
As for `O=C(c1ccccc1)C(CN1CCCC1)c1ccccc1` (centres undefined), the figure is 5.33 µM.
As for `O=S1(=O)CCC(NC(=S)SCc2ccccc2Br)C1` (centres undefined), the figure is 25.6 µM.
The figure for `Cc1ccc(C(=O)N/C(=C\c2ccc(-c3ccc(Br)cc3)o2)C(=O)NCCCN(C)C)cc1` is 6.84 µM.
As for `O=C(CCl)N(c1ccccc1)C1CCS(=O)(=O)C1` (centres undefined), the concentration at half-maximal activity (AC50) was 9.35 µM.
`O=C1Nc2cc(C(=O)NCCN3CCCCCC3)ccc2S/C1=C\c1ccccc1`: the AC50 was 9.78 µM.
